Here are results for one molecule from US8642801B2 (BHI Limited Partnership, priority 2003, dated 2014).

The experiment deals with T1, NAC peptide (Homo sapiens, UniProt P37840).
T1 construct: NAC is a 35 amino acid long peptide with highly hydrophobic stretches
Put plainly: Binding to NAC peptide by electrospray mass spectrometry. The conditions noted are these: 5:1 ratio (20 μM NAC: 100 μM test compound or 40 μM NAC: 200 μM test compound), 6.6% EtOH, pH 7.4; bound complex peak area / unbound NAC peak area. How it is done:
The ability of the compounds of the present invention to bind to NAC peptide in aqueous solution was evaluated. The binding ability correlates to the intensities of the peptide-compound complex peaks observed by the Electrospray Mass Spectrum. Millipore distilled deionized water was used to prepare all aqueous solutions. For pH determination a Beckman Φ36 pH meter fitted with a Corning Semi-Micro Combination pH Electrode was employed.
The optimal cone voltage was determined to be 20V.
Mass spectrometry—Mass spectrometric analysis was performed using a Waters ZQ 4000 mass spectrometer equipped with a Waters 2795 sample manager. MassLynx 4.0 (earlier by MassLynx 3.5) was used for data processing and analysis. Test compounds were mixed with disaggregated peptides in aqueous media (6.6% EtOH) at a 5:1 ratio (20 μM NAC: 100 μM of test compound or 40 μM NAC:200 μM of test compound). The pH of the mixture was adjusted to 7.4 (±0.2) using 0.1% NaOH (3-5 μL). Periodically, NAC peptide solution at 20 μM or 40 μM was also prepared in the same fashion and run as control. The spectra were obtained by introducing the solutions to the electrospray source by direct infusion using a syringe pump at a flow rate of 25 μl/min, and scanning from 100 to 2100 Da in the positive mode. The scan time was 0.9 sec per scan with an inter-scan delay of 0.1 sec and the run time was 5 min for each sample. All the mass spectra were sum of 300 scans. The desolvation and source temperature was 70° C. and the cone and capillary voltage were maintained at 20 V and 3.2 kV respectively.
The total area under the peaks for the bound NAC-compound complex divided by total area under the peaks for unbound NAC was determined for each compound tested.

Take `CC(C)(C)NCCCS(=O)(=O)O` [drawing 487]: the “NAC peptide Binding Strength” value is “++ (++ = Moderate; when the total binding is between 120% and 70%)”.
